Test: xn = mol fraction of the nth substance listed
Conditions: 100 kPa, Liquid; for viscosity: Falling or rolling sphere viscometry; for mass density: Vibrating tube method

CCCC[N+]1(C)CCOCC1.[Br-] [4-butyl-4-methylmorpholinium bromide] + O
Conditions	mass density, 298.15 K [kg/m3]	mass density, 303.15 K [kg/m3]	mass density, 308.15 K [kg/m3]	mass density, 313.15 K [kg/m3]	mass density, 318.15 K [kg/m3]	viscosity, 298.15 K [mPa·s]	viscosity, 303.15 K [mPa·s]	viscosity, 308.15 K [mPa·s]	viscosity, 313.15 K [mPa·s]	viscosity, 318.15 K [mPa·s]
x1 = 0.0017	1002.2	1000.7	999.1	997.2	995.2	–	–	–	–	–
x1 = 0.0033	1007.1	1005.6	1003.9	1002	999.9	–	–	–	–	–
x1 = 0.0066	1016.8	1015.2	1013.4	1011.4	1009.3	–	–	–	–	–
x1 = 0.0088	1022.9	1021.3	1019.5	1017.4	1015.3	–	–	–	–	–
x1 = 0.0167	1043.3	1041.5	1039.5	1037.3	1034.9	–	–	–	–	–
x1 = 0.034	1081.4	1079.1	1076.7	1074.2	1071.5	–	–	–	–	–
x1 = 0.0363	1086	1083.7	1081.3	1078.7	1076	1.96	1.715	1.5	1.323	1.175
x1 = 0.0601	1125.3	1122.6	1119.7	1116.8	1113.8	3.204	2.745	2.367	2.061	1.81
x1 = 0.0988	1170.8	1167.7	1164.5	1161.3	1158	6.179	5.16	4.353	3.716	3.204
x1 = 0.1242	1192	1188.7	1185.4	1182.1	1178.7	9.576	7.888	6.566	5.497	4.65
x1 = 0.154	1211.4	1208.1	1204.7	1201.3	1197.9	15.07	12.19	9.969	8.279	6.951
x1 = 0.2027	1234.7	1231.3	1227.9	1224.5	1221.1	32.61	25.31	20	16.07	13.12
x1 = 0.2383	1247.4	1244	1240.7	1237.3	1233.9	57.4	42.75	32.82	25.69	20.44
x1 = 0.2569	1252.8	1249.4	1246.1	1242.7	1239.3	81.23	60.27	45.77	35.46	28.04
x1 = 0.3007	1263.9	1260.5	1257.2	1253.9	1250.6	159.1	113.5	82.89	62.18	47.76

From the NIST ThermoML archive (doi:10.1016/j.jct.2016.03.030)
